Experimental findings from patent publication US9040691B2, “Hydroxymethylaryl-substituted pyrrolotriazines as ALK1 inhibitors” (BAYER INTELLECTUAL PROPERTY GMBH, priority 2011, dated 2015) are described below.

SMILES strings stand for the structures.

The subject of test [1] is hSmad7 mRNA in BMP9-stimulated HMVEC. As to the kind of experiment: Smad7 target gene induction: HMVEC cell assay and TaqMan expression analysis. Type of test: cell-based. As to conditions: Homo sapiens, hBMP9 stimulation, Smad7 mRNA by TaqMan. As for the experimental part:
B-2a. Smad7 Target Gene Induction: HMVEC Cell Assay and TaqMan Expression Analysis
Activation of ALK1 receptors by BMP9 induces the Smad1/5 signalling pathway and enhances expression of target genes Smad6, Smad7 and Id-1. Induction of Smad7-mRNA in BMP9-stimulated endothelial cells was determined to monitor the cellular potency of ALK1 kinase inhibitors.
Human microvascular endothelial cells (IIMVECadult, Cell Systems, St. Katharinen) were seeded in complete ENGS MV medium with all supplements (LifeLine Cell Technology) in 96 well plates with 10 000 cells per well. After 4 h incubation at 37° C. and 7.5% CO2 in a humidified incubator, medium was replaced with minimal medium (ENGS MV without supplements containing 0.02% FCS). After 16 h, test compounds or medium (controls) were added to the cultures, followed 30 min later by addition of hBMP9 (R&D Systems). Medium was removed 1 to 4 h later, plates were gently washed with phosphate-buffered saline, and cells were lysed with 150 μl per well of ice-cold RLT buffer (Qiagen).
Total cellular RNA was isolated with the Trizol® reagent protocol according to the manufacturer's specifications (Invitrogen, USA) and treated with DNAseI to remove genomic DNA contamination.
For relative quantitation of the mRNA distribution of hSmad7, total RNA from each sample was first reverse-transcribed using the ImProm-II Reverse Transcription System (Promega, USA) according to the manufacturer's protocol. The final volume was adjusted to 200 μl with water.
For relative quantitation of selected mRNA, the Applied Bioscience ABI 7900HT Sequence Detection System was used according to the manufacturer's specifications and protocols. PCR reactions were set up to quantitate hSmad7- and the housekeeping gene L32-mRNA. Forward and reverse primers and probes for hSmad7 and L32 were designed using the Applied Bioscience ABI Primer Expressim software and were synthesized by Eurogentec (Belgium). The hSmad7 forward primer sequence was: Primer 1 (SEQ ID NO 1). The hSmad7 reverse primer sequence was: Primer 2 (SEQ ID NO 2). Probe 1 (SEQ ID NO 3), labelled with FAM as the reporter dye and TAMRA as the quencher, was used as a probe for hSmad7. The L32 forward primer sequence was: Primer 3 (SEQ ID NO 4). The L32 reverse primer sequence was: Primer 4 (SEQ ID NO 5). Probe 2 (SEQ ID NO 6), labelled with FAM as the reporter dye and TAMRA as the quencher, was used as a probe for L32.
The following reagents were prepared in a total of 20 μl added per well: 1× qPCR-MasterMix (Eurogentec, Belgium) and hSmad7 forward and reverse primers each at 200 nM, 200 nM hSmad7 FAM/TAMRA-labelled probe 1 (SEQ ID NO 3), and 5 μl of template cDNA. Correspondingly, a second mix in a total of 20 μl was prepared using L32 FAM/TAMRA-labelled probe 2 (SEQ ID NO 6) and L32 forward and reverse primers added per well in parallel samples.
Thermal cycling parameters were 2 min at 50° C., followed by 10 min at 95° C., followed by 40 cycles of melting at 95° C. for 15 sec and annealing/extending at 60° C. for 1 min.
Calculation of Relative Expression:
The Ct (cycle threshold) values were calculated from the turning point of PCR product quantity curves by the ΔΔCt method (delta-delta Ct): ΔCt=CthSmad7−CtL32; relative expression=2^(15-ΔCt).
IC50 values of test compounds were calculated on basis of relative Smad7 expressions at different compound concentrations.
(In general: Quantitative PCR measures a nucleic acid by following its amplification.)

Test [2] relates to laser-induced choroidal neovascularisation. As to the kind of experiment: Topical efficacy in the laser-induced choroidal neovascularization (CNV) model. Type of test: in vivo, rat. Conditions: Brown-Norway rats, eye drops 10 μl of 20 mg/ml twice daily; for vascular leakage [HRA score]: angiography day 21, score 0-3; for choroidal neovascularisation lesion size: day 23. How it is done:
B-4. Topical Efficacy in the Laser-Induced Choroidal Neovascularization (CNV) Model
For this purpose, 65 pigmented Brown-Norway rats with no visible sign of ocular defects were selected and randomly assigned to six different groups (for n-numbers, see table below). On day 0, the animals were anaesthetized by an intraperitoneal injection (15 mg/kg xylazine and 80 mg/kg ketamine). After instillation of one drop of 0.5% tropicamide to dilate the pupils, choroidal neovascularisation was induced by burning six holes into the retina (disruption of Bruch's membrane) of one eye per animal using a 532 nm argon laser (lesion size: 50 μm; laser intensity: 150 mW; stimulus duration: 100 ms). Test compounds and vehicle controls were topically administered twice daily by instilling respective eye drops into the affected eye. The test compounds were dosed as follows: 10 μl of an eye drop formulation containing 20 mg/ml of the respective test compound suspended either in 100% liquid paraffin or in an aqueous vehicle (HPMC 15 cP 3.5%, polysorbate 80 0.5%, NaCl 0.9% in water) were applied to the affected eye twice daily at a 10 to 14 hour interval during the complete observation period of 23 days. Control animals received the respective vehicle (100% liquid paraffin or aqueous vehicle) topically twice daily. The body weight of all animals was recorded before the start and once daily during the study.
An angiography was performed on day 21 using a fluorescence fundus camera (Kowe). Here, after anaesthesia and pupillary dilation, 10% sodium fluorescein dye was injected subcutaneously, and images were recorded 2 and 10 min after dye injection. The vascular leakage of the fluorescein on the angiograms was evaluated by three different examiners who were blinded for group allocation (test compound versus vehicle), and scored with 0 (no leakage) to 3 (strongly stained).
On day 23, animals were sacrificed, and eyes were harvested and fixed in 4% paraformaldehyde solution for 1 hour at room temperature. After washing, the retina was carefully peeled, washed, blocked and stained with a FITC-isolectine B4 antibody in order to visualize the vasculature. Then, the sclera-choroids were flat-mounted and examined under a fluorescence microscope (Keyence Biozero) at 488 nm excitation wavelength. The area (in μm^2) of choroidal neovascularization was measured using ImageTool software.

In the case of `CCCc1cc(-c2ccc(CO)cc2)c2c(N)ncnn12` [Example 1, [4-(4-Amino-7-propylpyrrolo[2,1-f][1,2,4]triazin-5-yl)phenyl]methanol], the IC50 in test [1] was 100 nM. That is a sub-micromolar value.

In the case of `CCCc1cc(-c2cc(F)c(CO)c(F)c2)c2c(N)ncnn12` [Example 2, [4-(4-Amino-7-propylpyrrolo[2,1-f][1,2,4]triazin-5-yl)-2,6-difluorophenyl]methanol], in test [1], the IC50 turned out to be 125 nM.

On to `Nc1ncnn2c(CCCO)cc(-c3ccc(CO)cc3)c12` [Example 3, 3-{4-Amino-5-[4-(hydroxymethyl)phenyl]pyrrolo[2,1-f][1,2,4]triazin-7-yl}propan-1-ol], for which, in test [1], the IC50 turned out to be 180 nM.

In test [1], `Nc1ncnn2c(C(O)C3CC3)cc(-c3cc(F)c(CO)c(F)c3)c12` (stereo not drawn) [Example 5, {4-Amino-5-[3,5-difluoro-4-(hydroxymethyl)phenyl]pyrrolo[2,1-f][1,2,4]triazin-7-yl}(cyclopropyl)methanol] displayed an IC50 of 150 nM.

Turning to `Nc1ncnn2c1c(-c1cc(F)c(CO)c(F)c1)cc2[C@H]1CC[C@H](O)CC1` [Example 7, trans-4-[4-Amino-5-[3,5-difluoro-4-(hydroxymethyl)phenyl]pyrrolo[2,1-f][1,2,4]triazin-7-yl]-cyclohexanol], in test [2] (aqueous vehicle), the “vascular leakage [HRA score]” value amounted to 1.49 ± 0.24 HRA score and the “choroidal neovascularisation lesion size” value was found to be 6.14 ± 1.60 μm^2 × 10 000. In test [2] (paraffin vehicle), the “vascular leakage [HRA score]” value is recorded as 1.52 ± 0.21 HRA score and the “choroidal neovascularisation lesion size” value was 6.21 ± 0.99 μm^2 × 10 000. In test [1], the midpoint of inhibition, the IC50, lay at 130 nM.

In the case of `Nc1ncnn2c([C@@H]3CCCNC3)cc(-c3cc(F)c(CO)c(F)c3)c12` [Example 11, (4-{4-Amino-7-[(3R)-piperidin-3-yl]pyrrolo[2,1-f][1,2,4]triazin-5-yl}-2,6-difluorophenyl)methanol], in test [2] (aqueous vehicle), the “vascular leakage [HRA score]” value turned out to be 1.66 ± 0.29 HRA score and the “choroidal neovascularisation lesion size” value is 5.50 ± 1.38 μm^2 × 10 000. Also, in test [2] (paraffin vehicle), the “vascular leakage [HRA score]” value was 1.41 ± 0.29 HRA score and the “choroidal neovascularisation lesion size” value is reported as 6.45 ± 1.63 μm^2 × 10 000. The same compound showed an IC50 in test [1] of 90 nM.

As to `Nc1nc(-c2cc(-c3ccc(CO)cc3)c3c(N)ncnn23)cs1` [Example 17, {4-[4-Amino-7-(2-amino-1,3-thiazol-4-yl)pyrrolo[2,1-f][1,2,4]triazin-5-yl]phenyl}methanol], half-maximal inhibition in test [1] (IC50) required 120 nM.

`Nc1ncnn2c(CN3CCOCC3)cc(-c3cc(F)c(CO)c(F)c3)c12` [Example 20, {4-[4-Amino-7-(morpholin-4-ylmethyl)pyrrolo[2,1-f][1,2,4]triazin-5-yl]-2,6-difluorophenyl}-methanol] returned an IC50 in test [1] of 4400 nM. This IC50 is about 37-fold higher than that of the compound before.

In test [1], `Nc1ncnn2c(CN3CCOCC3)cc(-c3ccc(CO)c(F)c3)c12` [Example 21, {4-[4-Amino-7-(morpholin-4-ylmethyl)pyrrolo[2,1-f][1,2,4]triazin-5-yl]-2-fluorophenyl}methanol] had an IC50 of 6000 nM.

For the compound `Nc1ncnn2c(CN3CCOCC3)cc(-c3ccc(CO)c(Cl)c3)c12` [Example 22, {4-[4-Amino-7-(morpholin-4-ylmethyl)pyrrolo[2,1-f][1,2,4]triazin-5-yl]-2-chlorophenyl}methanol], inhibition in test [1] was half-maximal at 800 nM (IC50).

Usually IC50 stands for the midpoint of a concentration-inhibition curve. A low value points to greater potency in that assay.
